Tests used:
Assay in all cases: biochemical
Set-up in all cases: DiscoverX KINOMEscan scanMAX competition binding panel, single concentration, percent of control; remaining binding: dose or concentration left out as unconfirmed
Settings in all cases: KINOMEscan binding, percent of control; read-out: Table S4_SCANMAX REPORT - related to Fig. 1 / Percent Control
AURKB = AURKB (Homo sapiens, UniProt Q96GD4)
PIP5K1A = PIP5K1A (Homo sapiens, UniProt Q99755)
CSNK1G1 = CSNK1G1 (Homo sapiens, UniProt Q9HCP0)
[1] = target: T1, RPS6KA5(Kin.Dom.2-C-terminal) (Homo sapiens, UniProt O75582)
T1 construct: Kin.Dom.2-C-terminal

MEK1 = target: T2, MEK1 (Homo sapiens, UniProt Q02750)
T2 construct: gene MAP2K1

MYLK = MYLK (Homo sapiens, UniProt Q15746)
DAPK1 = DAPK1 (Homo sapiens, UniProt P53355)
MARK3 = MARK3 (Homo sapiens, UniProt P27448)
TRKB = target: T3, TRKB (Homo sapiens, UniProt Q16620)
T3 construct: gene NTRK2

SGK = target: T4, SGK (Homo sapiens, UniProt O00141)
T4 construct: gene SGK1

IRAK3 = IRAK3 (Homo sapiens, UniProt Q9Y616)
p38-gamma = target: T5, p38-gamma (Homo sapiens, UniProt P53778)
T5 construct: gene MAPK12

PRKCI = PRKCI (Homo sapiens, UniProt P41743)
MKK7 = target: T6, MKK7 (Homo sapiens, UniProt O14733)
T6 construct: gene MAP2K7

MAK = MAK (Homo sapiens, UniProt P20794)
CSF1R = CSF1R (Homo sapiens, UniProt P07333)
TEC = TEC (Homo sapiens, UniProt P42680)
NLK = NLK (Homo sapiens, UniProt Q9UBE8)
PRKCE = PRKCE (Homo sapiens, UniProt Q02156)

Chain of IRAK3 (Q9Y616 whole entry): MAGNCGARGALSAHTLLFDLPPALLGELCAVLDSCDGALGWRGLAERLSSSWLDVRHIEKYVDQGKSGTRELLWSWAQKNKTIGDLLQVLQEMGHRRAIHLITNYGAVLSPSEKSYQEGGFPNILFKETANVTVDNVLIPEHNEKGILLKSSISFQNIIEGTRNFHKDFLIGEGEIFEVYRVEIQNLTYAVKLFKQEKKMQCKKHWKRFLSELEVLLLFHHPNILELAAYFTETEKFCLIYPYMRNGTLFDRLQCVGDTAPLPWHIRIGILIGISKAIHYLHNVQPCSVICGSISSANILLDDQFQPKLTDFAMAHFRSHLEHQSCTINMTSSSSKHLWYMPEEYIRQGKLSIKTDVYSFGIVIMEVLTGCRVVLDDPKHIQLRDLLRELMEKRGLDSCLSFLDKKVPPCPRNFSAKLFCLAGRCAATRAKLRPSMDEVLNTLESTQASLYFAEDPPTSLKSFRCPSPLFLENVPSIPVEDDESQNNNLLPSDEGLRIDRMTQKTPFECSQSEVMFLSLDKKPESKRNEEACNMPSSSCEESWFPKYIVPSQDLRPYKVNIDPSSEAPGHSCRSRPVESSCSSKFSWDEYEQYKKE
T6 sequence (O14733 whole entry): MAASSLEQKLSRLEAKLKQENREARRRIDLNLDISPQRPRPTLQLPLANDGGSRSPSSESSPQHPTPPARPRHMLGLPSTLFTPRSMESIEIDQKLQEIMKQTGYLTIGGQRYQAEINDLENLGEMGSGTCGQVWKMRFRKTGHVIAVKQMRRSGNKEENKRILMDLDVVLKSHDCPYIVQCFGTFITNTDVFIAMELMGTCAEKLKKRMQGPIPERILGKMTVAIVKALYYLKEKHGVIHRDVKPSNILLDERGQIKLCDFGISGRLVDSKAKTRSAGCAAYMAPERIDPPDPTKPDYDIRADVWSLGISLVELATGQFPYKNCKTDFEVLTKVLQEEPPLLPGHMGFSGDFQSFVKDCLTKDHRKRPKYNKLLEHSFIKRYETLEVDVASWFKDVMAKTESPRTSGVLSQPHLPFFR
T5 sequence (P53778 whole entry): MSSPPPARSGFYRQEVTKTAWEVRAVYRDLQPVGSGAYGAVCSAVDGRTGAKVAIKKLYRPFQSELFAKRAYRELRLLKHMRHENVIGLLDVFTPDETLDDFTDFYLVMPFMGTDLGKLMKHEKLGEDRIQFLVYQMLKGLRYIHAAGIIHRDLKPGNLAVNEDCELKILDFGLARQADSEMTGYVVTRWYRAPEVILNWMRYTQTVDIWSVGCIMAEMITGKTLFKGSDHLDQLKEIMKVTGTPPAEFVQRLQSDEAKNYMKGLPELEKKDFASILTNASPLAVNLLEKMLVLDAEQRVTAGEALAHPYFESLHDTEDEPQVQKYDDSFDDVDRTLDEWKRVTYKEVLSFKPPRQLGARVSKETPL
T3 sequence (Q16620 whole entry): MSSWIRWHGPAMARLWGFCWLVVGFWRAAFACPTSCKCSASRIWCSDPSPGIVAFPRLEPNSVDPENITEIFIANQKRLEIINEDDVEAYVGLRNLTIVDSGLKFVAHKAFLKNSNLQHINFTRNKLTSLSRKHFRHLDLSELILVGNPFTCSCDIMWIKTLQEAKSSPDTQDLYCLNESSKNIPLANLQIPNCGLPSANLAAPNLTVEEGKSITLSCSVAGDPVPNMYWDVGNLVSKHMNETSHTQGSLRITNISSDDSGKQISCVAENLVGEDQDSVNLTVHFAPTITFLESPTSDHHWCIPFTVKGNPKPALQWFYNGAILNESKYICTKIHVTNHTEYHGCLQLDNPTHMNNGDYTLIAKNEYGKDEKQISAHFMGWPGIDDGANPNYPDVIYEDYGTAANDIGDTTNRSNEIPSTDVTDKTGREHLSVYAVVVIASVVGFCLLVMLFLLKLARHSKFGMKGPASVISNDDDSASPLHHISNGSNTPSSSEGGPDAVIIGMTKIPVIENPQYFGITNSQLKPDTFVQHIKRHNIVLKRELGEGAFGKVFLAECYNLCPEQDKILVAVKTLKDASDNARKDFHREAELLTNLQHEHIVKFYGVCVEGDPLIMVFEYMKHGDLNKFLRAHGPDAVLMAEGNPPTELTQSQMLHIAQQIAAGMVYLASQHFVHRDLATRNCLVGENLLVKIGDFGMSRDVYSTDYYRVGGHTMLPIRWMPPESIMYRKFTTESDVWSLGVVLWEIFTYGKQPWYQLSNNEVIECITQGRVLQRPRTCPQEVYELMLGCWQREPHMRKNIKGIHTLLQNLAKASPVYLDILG
Chain of PRKCI (P41743 whole entry): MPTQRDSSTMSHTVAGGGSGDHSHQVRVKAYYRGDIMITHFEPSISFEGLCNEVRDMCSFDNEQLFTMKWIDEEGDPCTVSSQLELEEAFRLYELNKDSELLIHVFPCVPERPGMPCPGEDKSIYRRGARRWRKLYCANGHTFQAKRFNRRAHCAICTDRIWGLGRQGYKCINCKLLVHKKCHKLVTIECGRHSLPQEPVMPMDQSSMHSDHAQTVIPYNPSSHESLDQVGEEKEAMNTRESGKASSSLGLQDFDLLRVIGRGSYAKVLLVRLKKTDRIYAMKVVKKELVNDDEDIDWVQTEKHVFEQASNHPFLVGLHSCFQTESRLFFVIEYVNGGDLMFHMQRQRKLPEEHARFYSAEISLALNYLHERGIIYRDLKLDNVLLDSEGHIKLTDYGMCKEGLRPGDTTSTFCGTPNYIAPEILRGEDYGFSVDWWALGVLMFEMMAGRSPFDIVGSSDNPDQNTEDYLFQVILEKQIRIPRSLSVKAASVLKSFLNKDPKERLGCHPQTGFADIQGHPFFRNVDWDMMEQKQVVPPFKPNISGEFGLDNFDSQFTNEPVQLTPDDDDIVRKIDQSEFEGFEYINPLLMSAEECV
T4 sequence (O00141 whole entry): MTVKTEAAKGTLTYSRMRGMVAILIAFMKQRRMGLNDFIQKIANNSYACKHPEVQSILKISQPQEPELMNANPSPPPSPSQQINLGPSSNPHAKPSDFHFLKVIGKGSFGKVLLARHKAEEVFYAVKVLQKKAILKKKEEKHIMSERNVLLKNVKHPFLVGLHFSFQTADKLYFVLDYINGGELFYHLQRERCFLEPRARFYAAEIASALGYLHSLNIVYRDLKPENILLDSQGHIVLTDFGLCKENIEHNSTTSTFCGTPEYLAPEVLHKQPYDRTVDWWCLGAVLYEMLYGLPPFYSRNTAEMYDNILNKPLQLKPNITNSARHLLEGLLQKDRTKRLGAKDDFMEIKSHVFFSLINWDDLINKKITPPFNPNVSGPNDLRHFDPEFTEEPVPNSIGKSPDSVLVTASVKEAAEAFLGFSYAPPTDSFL
Chain of TEC (P42680 whole entry): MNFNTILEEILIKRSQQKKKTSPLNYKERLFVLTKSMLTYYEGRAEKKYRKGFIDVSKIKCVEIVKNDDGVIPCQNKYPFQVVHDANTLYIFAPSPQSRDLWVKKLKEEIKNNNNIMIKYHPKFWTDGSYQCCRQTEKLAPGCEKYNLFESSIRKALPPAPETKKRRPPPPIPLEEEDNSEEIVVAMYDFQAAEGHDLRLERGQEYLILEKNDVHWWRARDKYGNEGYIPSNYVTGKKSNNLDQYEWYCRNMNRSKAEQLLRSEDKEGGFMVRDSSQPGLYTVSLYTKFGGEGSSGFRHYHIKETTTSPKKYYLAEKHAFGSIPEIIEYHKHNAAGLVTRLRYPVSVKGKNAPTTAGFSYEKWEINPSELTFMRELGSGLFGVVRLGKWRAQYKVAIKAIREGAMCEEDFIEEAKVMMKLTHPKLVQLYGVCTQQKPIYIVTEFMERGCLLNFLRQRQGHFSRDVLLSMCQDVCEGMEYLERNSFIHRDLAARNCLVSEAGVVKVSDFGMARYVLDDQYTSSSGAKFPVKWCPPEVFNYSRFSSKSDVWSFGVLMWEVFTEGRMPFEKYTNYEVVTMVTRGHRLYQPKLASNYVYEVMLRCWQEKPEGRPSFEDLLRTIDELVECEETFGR
Chain of NLK (Q9UBE8 whole entry): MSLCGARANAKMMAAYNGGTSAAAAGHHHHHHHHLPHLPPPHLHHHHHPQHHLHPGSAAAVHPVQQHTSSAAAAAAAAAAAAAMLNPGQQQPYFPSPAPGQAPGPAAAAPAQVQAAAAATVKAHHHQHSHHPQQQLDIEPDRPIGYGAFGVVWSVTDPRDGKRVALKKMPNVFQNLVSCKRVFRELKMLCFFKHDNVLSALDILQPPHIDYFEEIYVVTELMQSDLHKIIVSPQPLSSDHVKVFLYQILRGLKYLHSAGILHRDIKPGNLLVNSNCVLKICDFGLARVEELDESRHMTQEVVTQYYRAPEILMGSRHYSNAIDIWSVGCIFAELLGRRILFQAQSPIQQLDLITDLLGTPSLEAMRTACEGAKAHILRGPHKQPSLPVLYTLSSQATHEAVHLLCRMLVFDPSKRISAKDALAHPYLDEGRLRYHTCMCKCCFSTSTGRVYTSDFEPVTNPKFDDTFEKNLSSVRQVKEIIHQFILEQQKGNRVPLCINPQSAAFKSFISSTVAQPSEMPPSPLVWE
Chain of CSNK1G1 (Q9HCP0 whole entry): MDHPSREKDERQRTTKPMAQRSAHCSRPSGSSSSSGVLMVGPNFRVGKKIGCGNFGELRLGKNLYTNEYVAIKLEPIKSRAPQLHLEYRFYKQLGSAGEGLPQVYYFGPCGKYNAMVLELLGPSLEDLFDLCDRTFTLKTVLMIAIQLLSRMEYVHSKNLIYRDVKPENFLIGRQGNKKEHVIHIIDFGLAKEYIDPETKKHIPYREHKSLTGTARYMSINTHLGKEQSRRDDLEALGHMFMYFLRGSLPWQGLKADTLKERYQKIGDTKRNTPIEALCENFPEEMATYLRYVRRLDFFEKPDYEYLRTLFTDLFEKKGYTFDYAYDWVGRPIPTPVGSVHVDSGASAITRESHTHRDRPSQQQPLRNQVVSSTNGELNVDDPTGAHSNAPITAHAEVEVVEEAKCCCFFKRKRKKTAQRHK

`c1ccc2c(c1)Sc1ccccc1N2CCN1CCOCC1` [J54] gave a remaining binding (AURKB) of 100%, a remaining binding (PIP5K1A) of 46% and a remaining binding (CSNK1G1) of 100%. For the same compound, the remaining binding [1] was 100%, the remaining binding (MEK1) was 100% and the remaining binding (MYLK) was 97%. For the same compound, the remaining binding (DAPK1) was 99%, the remaining binding (MARK3) was 100% and the remaining binding (TRKB) was 89%. The remaining binding (SGK) was 93%, the remaining binding (IRAK3) was 90% and the remaining binding (p38-gamma) was 58%. For the same compound, the remaining binding (PRKCI) was 98%, the remaining binding (MKK7) was 79% and the remaining binding (MAK) was 31%. It also gave a remaining binding (CSF1R) of 100%, a remaining binding (TEC) of 100% and a remaining binding (NLK) of 91%. For the same compound, the remaining binding (PRKCE) was 100%.
